PMC10975012, “The Active Glucuronide Metabolite of the Brain Protectant IMM-H004 with Poor Blood–Brain Barrier Permeability Demonstrates a High Partition in the Rat Brain via Multiple Mechanisms” (Pharmaceutics, 2024)

Key:
OATP = experiment: Identification of transporters using inhibitors in hCMEC/D3 cells: OATP; assay type: cell-based, human; conditions: substrate 10 μmol/L, inhibitor 100 μmol/L
Procedure: The toxicity of all compounds, including inhibitors and substrates, toward hCMEC/D3 cells, was assessed using the 3-(4,5-Dimethylthiazol-2-yl)-2,5-diphenyltetrazolium bromide (MTT) reduction assay as described previously. To assess the effects of pyrilamine-sensitive proton-coupled organic cation (H^+/OC) antiporter, organic anion transporter (OAT), organic anion-transporting polypeptides (OATPs), organic cation transporter (OCT), and novel organic cation–carnitine transporter (OCTN) inhibitors on the uptake process, IMM-H004 or IMM-H004G (10 µmol/L) combined with the inhibitors were added to the medium after preincubating the cells with the inhibitors for 30 min. For evaluating the impact of the multidrug and toxin extrusion transporter (MATE), P-glycoprotein (P-gp), multidrug resistance protein (MRP), and breast cancer resistance protein (BCRP) on the uptake, IMM-H004 or IMM-H004G (10 µmol/L) was preincubated with the cells for 2 h before the addition of the inhibitors. After removing the supernatant, the cells were washed twice with prewarmed HBSS and incubated with fresh HBSS for 20 min. At the end of incubation, the supernatants were collected. […] The protein content of the lysed cells was determined using a bicinchoninic acid (BCA) assay kit (Beyotime Inc., Shanghai, China). The results were expressed as a percentage of the vehicle control.

OATP2B1 = target: T1, OATP2B1 (Homo sapiens, UniProt O94956); experiment: Uptake in MDCKⅡ-OATP2B1 overexpressing cells; assay type: cell-based; conditions: MDCKⅡ-OATP2B1 vs mock, 10 min; IMM-H004G 10 μmol/L
T1 construct: host or cells: MDCKII
T1 sequence (O94956 1-709): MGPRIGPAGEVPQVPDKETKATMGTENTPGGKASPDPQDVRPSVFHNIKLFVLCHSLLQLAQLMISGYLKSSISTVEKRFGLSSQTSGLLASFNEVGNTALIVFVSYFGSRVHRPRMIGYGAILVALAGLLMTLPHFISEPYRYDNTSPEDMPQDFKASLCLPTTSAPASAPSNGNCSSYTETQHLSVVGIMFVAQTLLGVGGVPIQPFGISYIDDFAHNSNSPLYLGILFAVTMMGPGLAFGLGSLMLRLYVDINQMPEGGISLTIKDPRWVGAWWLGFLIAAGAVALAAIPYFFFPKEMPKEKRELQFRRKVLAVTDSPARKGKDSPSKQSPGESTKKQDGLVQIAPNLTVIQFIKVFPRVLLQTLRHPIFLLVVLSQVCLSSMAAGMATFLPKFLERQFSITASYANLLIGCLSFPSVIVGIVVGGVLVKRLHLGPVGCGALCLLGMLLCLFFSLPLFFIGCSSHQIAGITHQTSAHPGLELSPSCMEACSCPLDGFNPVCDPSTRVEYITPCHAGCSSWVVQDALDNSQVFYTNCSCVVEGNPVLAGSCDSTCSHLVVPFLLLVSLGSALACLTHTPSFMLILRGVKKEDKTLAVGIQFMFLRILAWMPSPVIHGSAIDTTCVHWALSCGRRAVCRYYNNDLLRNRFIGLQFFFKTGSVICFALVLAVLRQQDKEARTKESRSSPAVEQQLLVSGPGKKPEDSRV
Source text: CHO cells and MDCKⅡ cells were stably transfected with lentiviruses carrying human SCLO1A2 (encoding OATP1A2) and SCLO2B1 (encoding OATP2B1), respectively. Cell transfected with lentiviruses carrying empty vectors served as control. Lentiviral plasmid packages were obtained from OBiO Technology (Shanghai, China), and procedures followed the instructions of the virus manual. Stably transfected cells were routinely grown in a 100 mm dish in DMEM with 10% fetal bovine serum. Prior to the experiments, the seeding density of the overexpressing cells in 24-well plates was 4 × 10^5 cells per well, and the medium was supplemented with 2 mM sodium butyrate for 24 h. The cultured cells were washed twice with prewarmed HBSS after removing the medium and then treated with 10 μmol/L IMM-H004G and 100 μmol/L rifampicin (or an equal amount of solvent dimethyl sulfoxide) for 10 min. After incubation, the cells were washed four times with cold HBSS. Follow-up sample processing procedures were as described in Section 2.3.1. E17βG (5 μmol/L) and rosuvastatin (10 μmol/L) were used as positive substrates in CHO-OATP1A2 and MDCKⅡ-OATP2B1 cells, respectively. The MDCKⅡ-MDR1 cells were previously established by our laboratory.

SH-SY5Y cells = experiment: In vitro metabolism in human brain cells (SH-SY5Y); assay type: in vitro ADME; conditions: IMM-H004 1–100 μmol/L
Procedure: (§1) SH-SY5Y, HEB, and hCMEC/D3 cells were utilized to investigate the in vitro metabolism of IMM-H004 and IMM-H004G in the brain. SH-SY5Y and HEB cells were cultured routinely in Dulbecco’s modified Eagle’s medium (DMEM) containing 10% fetal bovine serum and a 100 U/mL penicillin–100 μg/mL streptomycin solution. hCMEC/D3 cells were seeded on collagen type I coated 24-well plates and cultured in EndoGRO™-MV complete medium following the manufacturer’s guidelines. The cells were incubated at 37 °C, with 5% CO2, and were maintained in a humidified environment. Once the confluence reached 70–80%, the cells were digested using a 0.25% trypsin–EDTA solution, centrifuged at 200× g for 5 min, and then resuspended in a fresh culture medium. For each experiment, after seeding and 24 h incubation, the cells were washed twice with a prewarmed culture medium, and then IMM-H004 or IMM-H004G (1–100 μmol/L) dissolved in the culture medium was added. Incubation was carried out at 37 °C for 5 h or 24 h. After incubation, the supernatants were collected. Subsequently, the cells were washed with cold HBSS three times and lysed in a RIPA lysis buffer (Beyotime Inc., Shanghai, China). The concentrations of IMM-H004 and IMM-H004G were determined by liquid chromatography with tandem mass spectrometry (LC-MS/MS).

HEB cells = experiment: In vitro metabolism in human brain cells (HEB); assay type: in vitro ADME; conditions: IMM-H004 1–100 μmol/L, up to 5 h
Procedure: as §1

In the case of `COc1cc(OC2OC(C(=O)O)C(O)C(O)C2O)cc2oc(=O)c(N3CCN(C)CC3)c(C)c12` (stereo not shown) [IMM-H004G], the “reduction of uptake by OATP inhibitor rifamycin” value (OATP) is reported as 39.6% and the “uptake increase in OATP2B1-overexpressing cells compared to control cells” value (OATP2B1) is reported as 190 fold.

With `COc1cc(O)cc2oc(=O)c(N3CCN(C)CC3)c(C)c12` [IMM-H004] the “production of IMM-H004G from IMM-H004” value (SH-SY5Y cells) was “not detected” and the “production of IMM-H004G from IMM-H004” value (HEB cells) was “depended on both time and concentration”.
